Drawing on patent US20230019280A1, “SUBSTITUTED ISOINDOLONYL 2,2'-BIP[…], ANALOGUES THEREOF, AND METHODS USING SAME” (priority 2019, published 2023), this text covers EC50 for 34 compounds.

In general, EC50 refers to the concentration giving half of the maximal effect.

For one assay, the system named is HBsAg. The experiment in a line: HBsAg assay (inhibition of HBsAg in HepG2.2.15 cells). It is filed as cell-based, hepatitis B virus. The following applies: Hepatitis B virus, HepG2.2.15, 144 h, read-out: sAg EC50, HepG2.2.15 cells; supernatant HBsAg by CLIA at day 6 after exposure of compounds. Here is the method: Inhibition of HBsAg was determined in HepG2.2.15 cells. Cells were maintained in culture medium containing 10% fetal calf serum, […], Glutamine, penicillin/streptomycin. Cells were seeded in 96-well collagen-coated plate at a density of 30,000 cells/well. Serially diluted compounds were added to cells next day at the final DMSO concentration of 0.5%. Cells were incubated with compounds for 2-3 days, after which medium was removed. Fresh medium containing compounds was added to cells for additional 3-4 days. At day 6 after exposure of compounds, supernatant was collected, the HBsAg immunoassay (microplate-based chemiluminescence immunoassay kits, CLIA, Autobio Diagnosics Co., Zhengzhou, China, Catalog #CL0310-2) was used to determine the level of HBsAg according to manufactory instruction. Dose-response curves were generated and the EC50 value (effective concentrations that achieved 50% inhibitory effect) were determined using XLfit software. In addition, cells were seeded at a density of 5,000 cells/well for determination of cell viability in the presence and absence of compounds by using CellTiter-Glo reagent (Promega).
On to `CCOc1cc2c(cc1F)C(CC)N(c1nc(-c3ncccn3)ncc1F)C2=O` (single isomer, unassigned) [Example 56, 6-Ethoxy-3-ethyl-5-fluoro-2-(5-fluoro-[2,2′-bipyrimidin]-4-yl)isoindolin-1-one], for which the 50% effective concentration (EC50) came out at 70 nM.
On the same count and under the same terms, as for `CCC1c2cc(F)c(OC(C)C)cc2C(=O)N1c1nc(-c2ncccn2)ncc1F` (single isomer, unassigned) [Example 57, 3-Ethyl-5-fluoro-2-(5-fluoro-[2,2′-bipyrimidin]-4-yl)-6-isopropoxyisoindolin-1-one], the figure is 110 nM; as for `CCCC1c2cc(F)c(OC)cc2C(=O)N1c1nc(-c2ncccn2)ncc1F` (single isomer, unassigned) [Example 58, 5-Fluoro-2-(5-fluoro-[2,2′-bipyrimidin]-4-yl)-6-methoxy-3-propylisoindolin-1-one], 20 nM; as for `CCC1c2cc(F)c(F)cc2C(=O)N1c1cnc(-c2ncccn2)nc1` (single isomer, unassigned) [Example 59, 2-([2,2′-Bipyrimidin]-5-yl)-3-ethyl-5,6-difluoroisoindolin-1-one], 10000 nM.
Same read-out and setting: as for `CCC1c2cc(OC)c(OC)cc2C(=O)N1c1ccnc(-c2ncccn2)n1` (stereo not shown) [Example 1, 2-([2,2′-Bipyrimidin]-4-yl)-3-ethyl-5,6-dimethoxyisoindolin-1-one], the figure is 27 nM.
The same measure, in the same setting: the same measure for `CCC1c2cc(OC)c(OC)cc2C(=O)N1c1nc(-c2ncccn2)nc(C)c1C` (stereo not shown) [Example 24, 2-(5,6-Dimethyl-[2,2′-bipyrimidin]-4-yl)-3-ethyl-5,6-dimethoxyisoindolin-1-one]: 10000 nM; for `CCC1c2cc(F)c(OC)cc2C(=O)N1c1nc(-c2ncccn2)ncc1OC` (stereo not shown) [Example 25, 3-Ethyl-5-fluoro-6-methoxy-2-(5-methoxy-[2,2′-bipyrimidin]-4-yl)isoindolin-1-one]: 10000 nM.
Consider `COc1cc2c(cc1OC)C(c1ccc3c(c1)OCCO3)N(c1ccnc(-c3ncccn3)n1)C2=O` (stereo not shown) [Example 26, 2-([2,2′-Bipyrimidin]-4-yl)-3-(2,3-dihydrobenzo[b][1,4]dioxin-6-yl)-5,6-dimethoxyisoindolin-1-one], for which the 50% effective concentration (EC50) was determined as 18 nM.
Still for that read-out and setting: the same measure for `COc1cc2c(cc1OC)C(c1sccc1C)N(c1ccnc(-c3ncccn3)n1)C2=O` (stereo not shown) [Example 27, 2-([2,2′-Bipyrimidin]-4-yl)-5,6-dimethoxy-3-(3-methylthiophen-2-yl)isoindo-lin-1-one]: 1 nM; for `COc1cc2c(cc1OC)C(C1CCC1)N(c1ccnc(-c3ncccn3)n1)C2=O` (stereo not shown) [Example 28, 2-([2,2′-Bipyrimidin]-4-yl)-3-cyclobutyl-5,6-dimethoxyisoindolin-1-one]: 2 nM; for `COc1cc2c(cc1OC)C(C1CCOCC1)N(c1ccnc(-c3ncccn3)n1)C2=O` (stereo not shown) [Example 29, 2-([2,2′-Bipyrimidin]-4-yl)-5,6-dimethoxy-3-(tetrahydro-2H-pyran-4-yl)isoindolin-1-one]: 30 nM.
The same measure, in the same setting: as for `CCC1c2cc(OC)c(OC)cc2C(=O)N1c1cnc(-c2ncccn2)nc1` (stereo not shown) [Example 30, 3-Ethyl-5,6-dimethoxy-2-(2-pyrimidin-2-ylpyrimidin-5-yl)isoindolin-1-one], the figure is 48000 nM.
Take `CCC1c2cc(OC)c(OC)cc2C(=O)N1c1cccc(-c2ncccn2)n1` (stereo not shown) [Example 31, 3-Ethyl-5,6-dimethoxy-2-(6-(pyrimidin-2-yl)pyridin-2-yl)isoindolin-1-one]: the EC50 came to 7000 nM.
Take `CCC1c2cc(OC)c(OC)cc2C(=O)N1c1ccnc(-c2ncccn2)c1` (stereo not shown) [Example 32, 3-Ethyl-5,6-dimethoxy-2-(2-(pyrimidin-2-yl)pyridin-4-yl)isoindolin-1-one]: the 50% effective concentration (EC50) stood at 20 nM.
Still for that read-out and setting: the same measure for `CCC1c2cc(OC)c(OC)cc2C(=O)N1c1cncc(-c2ncccn2)n1` (stereo not shown) [Example 35, 3-Ethyl-5,6-dimethoxy-2-(6-(pyrimidin-2-yl)pyrazin-2-yl)isoindolin-1-one]: 1000 nM.
Same read-out and setting: the same measure for `CCC1c2cc(OC)c(OC)cc2C(=O)N1c1cc(C)nc(-c2ncccn2)n1` (stereo not shown) [Example 36, 3-Ethyl-5,6-dimethoxy-2-(6-methyl-[2,2′-bipyrimidin]-4-yl)isoindolin-1-one]: 10000 nM.

Staying with this assay, now noted: read-out: sAg EC50; HepG2.2.15 cells; supernatant HBsAg by CLIA at day 6 after exposure of compounds.
Regarding `COc1cc2c(cc1OC)C(c1ccccc1)N(c1ccnc(-c3ncccn3)n1)C2=O` (single isomer, unassigned) [Example 43, 2-([2,2′-Bipyrimidin]-4-yl)-5,6-dimethoxy-3-phenylisoindolin-1-one], the concentration giving a half-maximal response (EC50) was 1 nM.
Same read-out and setting: as for `COc1cc2c(cc1OC)C(c1ccccc1)N(c1ccnc(-c3ncccn3)n1)C2=O` (single isomer, unassigned) [Example 44, 2-([2,2′-Bipyrimidin]-4-yl)-5,6-dimethoxy-3-phenylisoindolin-1-one], the figure is 160 nM.
Take `CCC1c2cc(F)c(OC)cc2C(=O)N1c1ccnc(-c2ncccn2)n1` (single isomer, unassigned) [Example 49, 3-Ethyl-5-fluoro-6-methoxy-2-(2-pyrimidin-2-ylpyrimidin-4-yl)isoindolin-1-one]: the 50% effective concentration (EC50) amounted to 10 nM.
Still for that read-out and setting: as for `CCC1c2cc(F)c(OC)cc2C(=O)N1c1ccnc(-c2ncccn2)n1` (single isomer, unassigned) [Example 50, 3-Ethyl-5-fluoro-6-methoxy-2-(2-pyrimidin-2-ylpyrimidin-4-yl)isoindolin-1-one], the figure is 480 nM.
The same measure, in the same setting: the same measure for `CCC1c2cc(OC)c(F)cc2C(=O)N1c1ccnc(-c2ncccn2)n1` (single isomer, unassigned) [Example 51, 2-([2,2′-Bipyrimidin]-4-yl)-3-ethyl-6-fluoro-5-methoxyisoindolin-1-one]: 130 nM; for `CCC1c2cc(OC)c(F)cc2C(=O)N1c1ccnc(-c2ncccn2)n1` (single isomer, unassigned) [Example 52, 2-([2,2′-Bipyrimidin]-4-yl)-3-ethyl-6-fluoro-5-methoxyisoindolin-1-one]: 400 nM.
The same measure, in the same setting: the same measure for `COCCC1c2cc(F)c(OC)cc2C(=O)N1c1ccnc(-c2ncccn2)n1` (single isomer, unassigned) [Example 53, 2-([2,2′-Bipyrimidin]-4-yl)-5-fluoro-6-methoxy-3-(2-methoxyethyl)isoindolin-1-one]: 38 nM; for `COCCC1c2cc(F)c(OC)cc2C(=O)N1c1ccnc(-c2ncccn2)n1` (single isomer, unassigned) [Example 54, 2-([2,2′-Bipyrimidin]-4-yl)-5-fluoro-6-methoxy-3-(2-methoxyethyl)isoindolin-1-one]: 430 nM.
Regarding `CCC1c2cc(F)c(OC)cc2C(=O)N1c1nc(-c2ncccn2)ncc1F` (single isomer, unassigned) [Example 55, 3-Ethyl-5-fluoro-2-(5-fluoro-2-pyrimidin-2-yl-pyrimidin-4-yl)-6-methoxy-isoindolin-1-one], the EC50 turned out to be 50 nM.
The same measure, in the same setting: as for `CCC1c2cc(OC)c(OC)cc2C(=O)N1c1nc(-c2ncccn2)ncc1F` (single isomer, unassigned) [Example 66, 3-Ethyl-2-(5-fluoro-[2,2′-bipyrimidin]-4-yl)-5,6-dimethoxyisoindolin-1-one], the figure is 34 nM; as for `CCC1c2cc(OC)c(OC)cc2C(=O)N1c1nc(-c2ncccn2)ncc1F` (single isomer, unassigned) [Example 67, 3-Ethyl-2-(5-fluoro-[2,2′-bipyrimidin]-4-yl)-5,6-dimethoxyisoindolin-1-one], 10000 nM; as for `CCC1c2cc(OC)c(OC)cc2C(=O)N1c1cc(F)nc(-c2ncccn2)n1` (single isomer, unassigned) [Example 68, 3-Ethyl-2-(6-fluoro-[2,2′-bipyrimidin]-4-yl)-5,6-dimethoxyisoindolin-1-one], 1000 nM.
On the same count and under the same terms, the same measure for `CCC1c2cc(OC)c(OC)cc2C(=O)N1c1cc(F)nc(-c2ncccn2)n1` (single isomer, unassigned) [Example 69, 3-Ethyl-2-(6-fluoro-[2,2′-bipyrimidin]-4-yl)-5,6-dimethoxyisoindolin-1-one]: 49000 nM; for `COc1cc2c(cc1OC)C(c1ccccc1)N(c1nc(-c3ncccn3)ncc1F)C2=O` (single isomer, unassigned) [Example 70, 2-(5-Fluoro-[2,2′-bipyrimidin]-4-yl)-5,6-dimethoxy-3-phenylisoindolin-1-one]: 1 nM.
With `COc1cc2c(cc1OC)C(c1ccccc1)N(c1nc(-c3ncccn3)ncc1F)C2=O` (single isomer, unassigned) [Example 71, 2-(5-Fluoro-[2,2′-bipyrimidin]-4-yl)-5,6-dimethoxy-3-phenylisoindolin-1-one], the EC50 came to 1000 nM.
On the same count and under the same terms, as for `CCC1c2cc(OC)c(OC)cc2C(=O)N1c1ccnc(-c2ncc(F)cn2)n1` (single isomer, unassigned) [Example 72, 3-Ethyl-2-(5′-fluoro-[2,2′-bipyrimidin]-4-yl)-5,6-dimethoxyisoindolin-1-one], the figure is 39 nM.
On the same count and under the same terms, the same measure for `CCC1c2cc(OC)c(OC)cc2C(=O)N1c1ccnc(-c2ncc(F)cn2)n1` (single isomer, unassigned) [Example 73, 3-Ethyl-2-(5′-fluoro-[2,2′-bipyrimidin]-4-yl)-5,6-dimethoxyisoindolin-1-one]: 1000 nM; for `CCC1c2cc(F)c(OC)cc2C(=O)N1c1nc(-c2ncccn2)ncc1F` (single isomer, unassigned) [Example 74, 3-Ethyl-5-fluoro-2-(5-fluoro-[2,2′-bipyrimidin]-4-yl)-6-methoxyisoindolin-1-one]: 300 nM.
